Where no end group is shown, it is not given here.

Consider 7 molecules from PMC12270203, “The ExoGAN generative AI framework enables extracellular vesicle-based immunotherapy” (Research Square, 2025).

For test [1], the system named is surface HLA*A02:01 on engineered K562 cells (K+). The test can be described thus: Flow cytometry peptide exchange / antigen presentation assay on K562 cells. The format is cell-based, human. Conditions: 1 uM AF555 N-terminal tagged peptide, 5 uM GL dipeptide, 1 uM brefeldin A, 3 hours, N=4. For orientation: A flow cytometer gives signals particle by particle.
Protocol: (K+) that only expresses the HLA*A02:01 allele (see Methods).
To validate ExoGAN at the cellular level, we used engineered K562[53] cells (K+) that only express surface HLA*A02:01. Native K562 cells (K−) and K+ cells were grown in complete 1640-RPMI (Gibco) media and harvested at 1 x 10^6 cells. Based on the method reported by Saini et al.[70], cells were incubated with 1 uM AF555 N-terminal tagged peptides with or without the 5 uM GL dipeptide in 1 uM brefeldin A for 3 hours in a 96 well plate. Total volume was 200 uL per well. Cells were washed 3x and subjected to flow cytometry for HLA*A02:01 affinity.
The next test has as its system DMF5 TCR on J+ cells. As to the kind of experiment: J+ cell immunostimulation by peptide-engineered APC-EVs. The format is cell-based, human. The conditions noted are these: 2x10^9 particles, 24 hours.
The target of test [2] is HLA-A*02:01 on engineered K562 cells (K+) and on extracellular vesicles isolated from them (human). As to the kind of experiment: nano flow cytometry on extracellular vesicles; EVs isolated from K+ cells incubated with 1 uM AF647-tagged peptide and 5 uM GL dipeptide, ultrafiltered (10k MWCO), stained with an AF488 HLA-A*02:01 antibody; NanoFCM.

Protocol for DMF5 TCR on J+ cells: We designed EVs derived from K+ cells with ExoGAN-designed peptides to precisely activate J+ cells expressing the melanoma TCR, DMF5.
100 uL of the isolate solution was combined with a 100 uL mastermix solution containing 5 uM GL dipeptide and 1 uM peptide. The 200 uL solution was incubated on a revolver at 4°c for 1.5 hours, following purification by ultrafiltration using a 10k MWCO column into a 30 uL solution. 10 uL was used for zeta potential, nano flow cytometry to assess peptides binding onto HLA-A*02:01 and 10 uL was used to assess CD69 expression and IL-2 secretion from J+ cells. To measure J+ functionality, 2x10^5 J+ cells in 190 uL were added to a 96 round bottom well plate, followed by adding the 10 uL isolate solution. 24 hours later, CD69 was evaluated with flow cytometry

CLICMDMVV [Exo_4]: in test [1], the “peptide presentation on K+ cells (AF555 median fluorescent intensity)” value is “most potent peptide binders”. The same measure, in the same setting: as for FLIDLAFLI [IEDB, reference compound], the entry is “most potent peptide binders”. As to FLIHSRNHD [Exo_1], in the test on DMF5 TCR on J+ cells (2x10^5 J+ cells, flow cytometry, N=4), the “CD69 median fluorescent intensity of J+ cells” value is listed as “outperformed MART-1”. In the test with DMF5 TCR on J+ cells (J+ cells, ELISA, Dunnett's test corrected one-way ANOVA, p <0.05), the “IL-2 secretion of J+ cells” value is on record as “significantly more”.

B1: Exo_2, AF647-tagged (peptide)
peptide: HHMNMSMSK
modifications: also: AF647-tagged, position not given here
B1: in test [2], the percent peptide binding amounted to 100%.

B2: Exo_3, AF647-tagged (peptide)
peptide: AAICTLLYD
modifications: also: AF647-tagged, position not given here
On to B2, for which the percent peptide binding in test [2] was found to be 100%.

B3: Exo_4, AF647-tagged (peptide)
peptide: CLICMDMVV
modifications: cysteine pairing not given here; also: AF647-tagged, position not given here
For the molecule B3, the percent peptide binding in test [2] came to 100%.

B4: Exo_1, AF647-tagged (peptide)
peptide: FLIHSRNHD
modifications: also: AF647-tagged, position not given here
Consider B4, for which the percent peptide binding in test [2] was 100%.
